Laboratory results taken from patent publication US12459967B2, “Modulators of 5′-nucleotidase, ecto and the use thereof” (Arcus Biosciences, Inc., priority 2016, dated 2025).
pIC50: −log10 of the molar value.

Molecular target: T1, human CD73 (Homo sapiens, UniProt P21589)
T1 construct: host or cells: CHO-K1 (suspension pool CHO-CD73)
T1 sequence (P21589 27-549): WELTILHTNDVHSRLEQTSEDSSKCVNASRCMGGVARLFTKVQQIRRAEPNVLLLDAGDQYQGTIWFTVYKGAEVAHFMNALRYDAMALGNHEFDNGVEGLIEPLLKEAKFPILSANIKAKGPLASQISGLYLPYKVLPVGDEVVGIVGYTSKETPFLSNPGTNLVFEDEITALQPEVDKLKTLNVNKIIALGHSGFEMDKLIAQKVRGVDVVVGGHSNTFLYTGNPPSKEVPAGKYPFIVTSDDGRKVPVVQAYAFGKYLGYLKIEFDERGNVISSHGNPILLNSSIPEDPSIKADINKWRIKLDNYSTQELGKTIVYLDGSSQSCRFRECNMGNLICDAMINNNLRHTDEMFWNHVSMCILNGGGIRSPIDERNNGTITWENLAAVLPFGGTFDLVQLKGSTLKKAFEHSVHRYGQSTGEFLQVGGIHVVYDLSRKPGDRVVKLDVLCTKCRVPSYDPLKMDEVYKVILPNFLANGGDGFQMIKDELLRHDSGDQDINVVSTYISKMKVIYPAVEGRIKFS
Test: Inhibition of ecto-5′-nucleotidase (CD73) activity in CHO-CD73 cells, phosphate colorimetric readout
Format: cell-based
Settings: CHO-K1 cells stably transfected with human CD73, 2500 cells per well, 25 μM AMP substrate, 50 minutes incubation at 37° C.; read-out: Potency: CD73 IC50
Experimental: Inhibition of Ecto-5′-nucleotidase Activity. Compounds were evaluated to determine their ecto-5′-nucleotidase (CD73) inhibitory activity. Briefly, CHO-K1 cells stably transfected with human CD73 were generated by LakePharma (Belmont, CA) using molecular cloning of human CD73 (http://www.uniprot.org/uniprot/P21589) and mammalian transient expression vector (P21589.1). After antibiotic selection in CD OptiCHO cell media (Invitrogen, Catalog #12681-011) containing 5 μg/mL Puromycin and 200 μg/mL Hygromycin B, a suspension pool of CHO-CD73 cells was collected and frozen in 7.5% DMSO in cell media without antibiotics.
On the day of the experiment, one vial of CHO-CD73 cells was thawed and suspended in assay media which consisted of 20 mM HEPES, pH 7.4, 137 mM NaCl, 5.4 mM KCl, 1.3 mM CaCl2), 4.2 mM NaHCO3 and 0.1% glucose. To test the ability of compounds to inhibit CD73 enzymatic activity, 2 μL of 500 μM of compounds dissolved in DMSO (50×) were added to a 96-well polystyrene plate containing 58 μL of assay buffer. Next, 20 μL of CHO-CD73 cells in assay buffer were added to assay plate followed by 20 μL of 125 μM AMP (Adenosine 5′-monophosphate monohydrate) in assay buffer. Final assay conditions consisted of 2500 cells per well in 2% DMSO and 25 μM of AMP substrate. After 50 minutes of incubation (37° C. and 5% CO2) and centrifugation at 225×g for 5 mins, 80 μL of supernatant were transferred to a 96-well Spectra Plate (PerkinElmer, cat #6005640) which was pre-dispensed with 20 μL of PiColorLock Gold colorimetric assay reagents (Thermo, cat #30 300 30). The amount of inorganic phosphate was determined by reading the absorbance at 620 nm on an EnVision Multilabel Plate Reader (PerkinElmer). Enzymatic activity of CD73 was based on the amount of phosphate generated. Percentage of activity was calculated based on DMSO and no cells control wells. IC50 values of compounds were determined by four parameter non-linear regression fitting of percentage of activity in GraphPad Prism software.

SMILES	pIC50
O=P(O)(O)CP(=O)(O)OC[C@H]1O[C@@H](n2ncc3c(N[C@H](c4ccccc4)C(F)(F)F)nc(Cl)nc32)[C@H](O)[C@@H]1O	> 7.00
CN(c1nc(Cl)nc2c1ncn2[C@@H]1O[C@H](COP(=O)(CP(=O)(Oc2ccccc2)Oc2ccccc2)Oc2ccccc2)[C@@H](O)[C@H]1O)C1CCCC1 (stereo partly shown)	< 6.00
CC(C)N(C)c1nc(Cl)nc2c1ncn2[C@@H]1O[C@H](COP(=O)(O)CP(=O)(O)O)[C@@H](O)[C@H]1O	> 7.00
COP(=O)(CP(=O)(O)O)OC[C@H]1O[C@@H](n2cnc3c(N(C)C4CCCC4)nc(Cl)nc32)[C@@H](F)[C@@H]1O (stereo partly shown)	> 7.00
O=P(O)(O)CP(=O)(O)OC[C@H]1O[C@@H](n2ccc3c(NCc4ccccc4)nc(Cl)nc32)[C@@H](F)[C@@H]1O	> 7.00
CC(C)(C)c1ccc(CNc2nc(Cl)nc3c2ncn3[C@@H]2O[C@H](COP(=O)(O)CP(=O)(O)O)[C@@H](O)[C@H]2O)cc1	> 7.00
CN(c1nc(Cl)nc2c1ncn2[C@@H]1O[C@H](COP(=O)(O)CP(=O)(O)O)[C@@H](O)[C@H]1O)C1CCCC1	> 7.00
C[C@H](Nc1cc(Cl)nc2c1cnn2[C@@H]1O[C@H](COP(=O)(O)CP(=O)(O)O)[C@@H](O)[C@H]1O)c1ccc(F)cc1	> 7.00
C[C@H](Nc1nc(Cl)nc2c1ccn2[C@@H]1O[C@H](COP(=O)(O)CP(=O)(O)O)[C@@H](O)[C@@H]1F)c1ccccc1F	> 7.00
C[C@H](Nc1nc(Cl)nc2c1ccn2[C@@H]1O[C@H](COP(=O)(O)CP(=O)(O)O)[C@@H](O)[C@@H]1F)c1ccccc1	> 7.00
C[C@H](Nc1nc(Cl)nc2c1cnn2[C@@H]1O[C@H](COP(=O)(O)CP(=O)(O)O)[C@@H](O)[C@H]1O)c1cccc(F)c1	> 7.00
C[C@H](Nc1nc(Cl)nc2c1ccn2[C@@H]1O[C@H](COP(=O)(O)CP(=O)(O)O)[C@@H](O)[C@H]1O)c1ccccc1F	> 7.00
COCc1nc(NC2CCCC2)c2ncn([C@@H]3O[C@H](COP(=O)(O)CP(=O)(O)O)[C@@H](O)[C@@H]3F)c2n1	> 7.00
O=P(O)(O)CP(=O)(O)OC[C@H]1O[C@@H](n2cnc3c(NCc4ccccc4)nc(N4CCCCC4)nc32)[C@H](O)[C@@H]1O	> 7.00
C[C@H](Nc1cc(Cl)nc2c1cnn2[C@@H]1O[C@H](COP(=O)(O)CP(=O)(O)O)[C@@H](O)[C@H]1O)c1ccccc1	> 7.00
O=P(O)(O)CP(=O)(O)OC[C@H]1O[C@@H](n2cnc3c(NCc4ccccc4)nc(C(F)(F)F)nc32)[C@@H](F)[C@@H]1O	> 7.00
O=P(O)(O)CP(=O)(O)OC[C@H]1O[C@@H](n2ncc3c(NCc4ccc(Cl)cc4)nc(Cl)nc32)[C@H](O)[C@@H]1O	> 7.00
O=P(O)(O)CP(=O)(O)OC[C@H]1O[C@@H](n2cnc3c(NCc4cc(C(F)(F)F)cc(C(F)(F)F)c4)ncnc32)[C@H](O)[C@@H]1O	> 7.00
CN(c1nc(Cl)nc2c1ncn2[C@@H]1O[C@H](COP(=O)(CP(=O)(Oc2cccc(Cl)c2)Oc2cccc(Cl)c2)Oc2cccc(Cl)c2)[C@@H](O)[C@H]1O)C1CCCC1 (stereo partly shown)	< 6.00
O=P(O)(O)CP(=O)(O)OC[C@H]1O[C@@H](n2ncc3c(NC4CCCC4)cc(Cl)nc32)[C@H](O)[C@@H]1O	> 7.00

SMILES	pIC50
O=P(O)(O)CP(=O)(O)OC[C@H]1O[C@@H](n2cnc3c(NC4CCCC4)nc(Cl)nc32)[C@H](O)[C@@H]1O	> 7.00
CC(COP(=O)(O)CP(=O)(O)O)n1cnc2c(NCc3ccccc3)ncnc21 (stereo not shown)	< 6.00
C[C@H](Nc1nc(Cl)nc2c1ncn2[C@@H]1O[C@H](COP(=O)(O)CP(=O)(O)O)[C@@H](O)[C@@H]1F)c1ccccc1	> 7.00
O=P(O)(O)CP(=O)(O)OC[C@H]1O[C@@H](n2cnc3c(NCc4ccccc4)nc(N4CCOCC4)nc32)[C@H](O)[C@@H]1O	> 7.00
CN(Cc1ccccc1Cl)c1nc(Cl)nc2c1ncn2[C@@H]1O[C@H](COP(=O)(O)CP(=O)(O)O)[C@@H](O)[C@@H]1F	> 7.00
Nc1nc(C(O)C2CC2)nc2c1ncn2[C@@H]1O[C@H](COP(=O)(O)CP(=O)(O)O)[C@@H](O)[C@@H]1F (stereo partly shown)	> 7.00
CCC(OP(=O)(O)CP(=O)(O)O)[C@H]1O[C@@H](n2cnc3c(NCc4ccccc4)nc(Cl)nc32)[C@H](O)[C@@H]1O (stereo partly shown)	> 7.00
Nc1nc(Cl)nc2c1ncn2[C@@H]1O[C@H](COP(=O)(O)CP(=O)(O)O)[C@@H](O)[C@@H]1F	> 7.00
O=P(O)(O)CP(=O)(O)OC[C@H]1O[C@@H](n2cnc3c(NC4CCCC4)cc(Cl)nc32)[C@H](O)[C@@H]1O	> 7.00
C[C@@H](Nc1nc(Cl)nc2c1cnn2[C@@H]1O[C@H](COP(=O)(O)CP(=O)(O)O)[C@@H](O)[C@H]1O)c1ccc(F)cc1	> 7.00
CNc1nc(Cl)nc2c1cnn2[C@@H]1O[C@H](COP(=O)(O)CP(=O)(O)O)[C@@H](O)[C@H]1O	> 7.00
COP(=O)(O)CP(=O)(O)OC[C@H]1O[C@@H](n2cnc3c(N(C)C4CCCC4)nc(Cl)nc32)[C@@H](F)[C@@H]1O	6.00 to 7.00
CC(C)OC(=O)OCOP(=O)(O)CP(=O)(OCOC(=O)OC(C)C)OC[C@H]1O[C@@H](n2ncc3c(N[C@@H](C)c4ccccc4)nc(Cl)nc32)[C@H](O)[C@@H]1O (stereo partly shown)	< 6.00
CC(Cn1cnc2c(NCc3ccccc3)ncnc21)OP(=O)(O)CP(=O)(O)O (stereo not shown)	< 6.00
CC(C)Sc1nc(NCc2ccccc2)c2ncn([C@@H]3O[C@H](COP(=O)(O)CP(=O)(O)O)[C@@H](O)[C@H]3O)c2n1	> 7.00
C[C@@H](Nc1nc(Cl)nc2c1cnn2[C@@H]1O[C@H](COP(=O)(O)CP(=O)(O)O)[C@@H](O)[C@@H]1F)c1ccccc1	> 7.00
C[C@H](Nc1nc(Cl)nc2c1cnn2[C@@H]1O[C@H](COP(=O)(O)CP(=O)(O)O)[C@@H](O)[C@H]1O)c1ccccc1F	> 7.00
C[C@H](Nc1nc(Cl)nc2c1ccn2[C@@H]1O[C@H](COP(=O)(O)CP(=O)(O)O)[C@@H](O)[C@H]1O)c1ccc(F)cc1	> 7.00
O=P(O)(O)CP(=O)(O)OC[C@H]1O[C@@H](n2ncc3c(NCc4ccccc4)nc(Cl)nc32)[C@H](O)[C@@H]1O	> 7.00
Nc1nc(F)nc2c1ncn2[C@@H]1O[C@H](COP(=O)(O)CP(=O)(O)O)[C@@H](O)[C@H]1O	> 7.00
